Values of other authors, collected in patent US6458923B1, “Modified position (7) bradykinin antagonist peptides” (Scios Inc., priority 1991, dated 2002).
No end group written: not given here.

What was measured:
pulmonary kininase = conditions: anesthetized rat; intra-aortic vs intravenous administration

Sequence: RPPGFSPFR [Bradykinin, Arg Pro Pro Gly Phe Ser Pro Phe Arg]
- half life in the systemic circulation: less than 30 seconds
- destruction on a single passage through the pulmonary circulation (pulmonary kininase): 98-99%
